“And” between values parts separate entries of the source, which are not always exact repeats. Identical values can stand only once.
Key:
recombinant CYP2C8 = target: T1, recombinant CYP2C8 (Homo sapiens, UniProt P10632); assay: Intrinsic clearance using recombinant CYPs: CYP2C8; assay type: in vitro ADME; conditions: 1 μM
T1 construct: purchased Corning Life Sciences (Woburn, MA, USA)
T1 sequence (P10632 1-490): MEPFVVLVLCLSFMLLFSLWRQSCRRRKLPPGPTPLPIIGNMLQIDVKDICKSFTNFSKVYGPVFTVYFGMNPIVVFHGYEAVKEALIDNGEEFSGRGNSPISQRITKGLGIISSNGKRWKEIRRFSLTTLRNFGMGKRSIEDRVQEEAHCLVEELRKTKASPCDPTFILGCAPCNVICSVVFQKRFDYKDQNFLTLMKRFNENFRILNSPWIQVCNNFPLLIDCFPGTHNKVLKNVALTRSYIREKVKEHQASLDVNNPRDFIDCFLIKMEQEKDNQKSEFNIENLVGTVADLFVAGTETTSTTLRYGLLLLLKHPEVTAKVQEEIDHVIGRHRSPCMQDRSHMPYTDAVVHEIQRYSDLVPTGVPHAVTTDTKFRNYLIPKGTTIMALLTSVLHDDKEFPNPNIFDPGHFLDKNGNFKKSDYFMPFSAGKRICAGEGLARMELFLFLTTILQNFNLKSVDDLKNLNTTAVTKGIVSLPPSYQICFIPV
Procedure: The elimination profiles of tegoprazan and M1 were assessed using rCYPs. All the assay procedures were performed according to the manufacturer’s instructions. Master mix (1.399 mL), containing the NADPH-generating system, 3.3 mM of glucose 6-phosphate, PBS buffer, deionized water, and each rCYP (25 pmol/μL of CYP2C8, 2C19, and 2E1 and 50 pmol/μL of CYP3A4, 2C9, and 2D6), was added to a microtube and pre-incubated at 37 °C for 5 min. Next, 1 μM tegoprazan and M1 were added and incubated at 37 °C for 0, 5, 10, 20, 30, 45, and 60 min. A total of 100 μL of the sample, incubated for predefined duration, was transferred to a fresh e-tube. Next, 200 μL of acetonitrile containing tegoprazan-d6 (0.5 μM) was added, vortexed for 5 min, and centrifuged at 16,200× g and 4 °C for 10 min. The concentrations of the remaining tegoprazan and M1 were determined by LC–MS/MS. All experiments were performed in duplicate. CLint,rCYP levels were assessed using the results of the disappearance test. The terminal slope of the linear regression was used to determine the CLint for tegoprazan. The CLint resulting from rCYPs was calculated using Equation (3):(3) CLint,rCYP(μL/min/pmol CYP)=0.693/t1/2×1400/concentration of CYP […]

CYP3A4 = tested on: CYP3A4; set-up: method as in ref 17, 18 = [17]; 17. Tegoprazan (K-CAB) Available online: https://pdfslide.net/reader/f/tegoprazan-k-cab-2019-02-08-tegoprazan-metabolic-pathway-75-by-cyp3a4 (accessed on 10 December 2020) || [18]; PMID 34575565; doi:10.3390/pharmaceutics13091489; 18. Yoon D.Y. Lee S. Jang I.-J. Kim M. Lee H. Kim S. Kim B. Song G.S. Rhee S.-J. Prediction of Drug–Drug Interaction Potential of Tegoprazan Using Physiologically Based Pharmacokinetic Modeling and Si; conditions: cited from earlier work

Compound: Cc1nc2cc(C(=O)N(C)C)cc(O[C@H]3CCOc4cc(F)cc(F)c43)c2[nH]1 [tegoprazan]
- CLint, CYP2C8 (recombinant CYP2C8; experimental data): 0.06 µL/min/pmol and 0.060 µL/min/pmol
- Slope (disappearance) (recombinant CYP2C8; rCYP2C8): 0.002
- metabolic fraction by CYP3A4 of total hepatic clearance (CYP3A4): approximately 75%
